Experimental data from patent publication US12377191B2, “Chondroinductive peptides and compositions and methods of use thereof” (The Board of Regents of the University of Oklahoma, priority 2018, dated 2025).
Where no end group is shown, it is not given here.

Assays:
[1] = system: rat bone marrow mesenchymal stem cells (rBMSCs); experiment: Preliminary study: chondroinductivity with rBMSCs by rt-PCR; type: cell-based; details: 100 ng/ml in medium, 3 days, p<0.05
Description: In a preliminary study, the chondroinductivities of Link N peptide (SEQ ID NO: 9, Table 2) and SPPEPS (SEQ ID NO:2) with rBMSCs were evaluated at two plate coating densities (0.5 and 1 μg/mm2) and two soluble concentrations (10 and 100 ng/mL) after 3 days by rt-PCR (n=3). For rBMSCs cultured on TCT plates the chondroinductivity was compared with negative control (no growth factor or peptide in the cell culture medium) and positive control group. The positive control was a known chondrogenic growth factor in lieu of the SPPEPS (SEQ ID NO:2) peptide, i.e., 10 ng/ml (dissolved in rBMSCs cell culture medium) human transforming growth factor-β3 (TGF-β3, R&D systems, Minneapolis, MN).
The gene expressions were analyzed for all the rBMSCs samples cultured on the TCT plates after 3 days (n=6) and all the rBMSCs cultured on the hydrogel surface after 3 days (n=4). The gene expressions of each sample were evaluated in triplicate. […] GAPDH was used as an endogenous control, with relative gene expression measured using the 2^−ΔΔCt method. […]

rBMSC spheroids = experiment: Collagen II gene expression of rBMSC spheroids (SPPEPS vs TGF-β3); type: cell-based, rat; details: 100 ng/ml SPPEPS; normoxic and hypoxic; n=5
Description: Collagen II gene expression with control (no supplement), TGF-β3, or SPPEPS (1, 100 ng/ml). Hypoxic bars are righthand, normoxic bars are lefthand. n=5, p<0.05 difference from αnormoxic control, βhypoxic control, *normoxic counterpart, SSPPEPS (SEQ ID NO: 2) 1 ng/ml, #normoxic TGF-β3,!all groups.

[2] = system: rat bone marrow mesenchymal stem cells (rBMSCs); experiment: Gene expression (rt-PCR) of rBMSCs on TCT plates, SPPEPS coated or in medium; type: cell-based
Description: In one set of experimental groups, the SPPEPS (SEQ ID NO:2) peptide was adsorbed to the well plate surface. The peptide was dissolved in sterile DI water (20 μg/mL), sterile-filtered (0.22 μm), and was added to sterile 96-well plates to reach the desired coating concentrations (0.5, 1 and 3 μg/mm2) before overnight water evaporation at room temperature in sterile conditions. The rBMSCs were thawed and after passage 4 were cultured on the plates (150,000 cells/well, i.e., […]), for the control groups the rBMSCs were cultured (150,000 cells/well) on the uncoated TCT plates and the cell culture medium was changed every second day.
In a separate set of experimental groups, SPPEPS (SEQ ID NO:2) peptide was included in soluble form in the medium instead of being coated on the surface. rBMSCs were cultured on 96-well plates (150,000 cells/well) with cell culture medium containing SPPEPS (SEQ ID NO:2) (50, 100 and 500 ng/ml). The cell culture medium containing the peptide was changed every second day.
rBMSCs were cultured either on TCT plastic plates or on a hydrogel-coated surface. For the cells cultured on TCT plates, three different concentrations of SPPEPS (SEQ ID NO:2) peptide (50, 100 and 500 ng/ml) in cell culture medium, three different coating concentrations (0.5, 1 and 3 μg/mm2) and a control group (no growth factor or peptide in the cell culture medium) were chosen (n=6) and the peptide chondroinductivity was evaluated by rt-PCR after 3 days (see FIGS. 2-4 and gene expression subsection below).
The gene expressions were analyzed for all the rBMSCs samples cultured on the TCT plates after 3 days (n=6) and all the rBMSCs cultured on the hydrogel surface after 3 days (n=4). The gene expressions of each sample were evaluated in triplicate. To prepare the samples for gene expression, the mRNAs were extracted after 3 days using Qiagen RNeasy mini kit (Valencia, CA) following the kit instructions, before reverse transcription using a cDNA kit (Invitrogen, Carlsbad, CA). rt-PCR was performed with a qTOWER^3 Thermal Cycler (Upland. CA) using TaqMan Col2A1, Sox9, ACAN and GAPDH primers (Invitrogen, Carlsbad, CA). GAPDH was used as an endogenous control, with relative gene expression measured using the 2^−ΔΔCt method. For cells on both surfaces, the calibrators were the rBMSCs at passage 4 before transferring them to the 96-well plates.

[3] = 50 ng/ml, 100 ng/ml and 500 ng/ml groups, 3 days
[4] = 100 ng/ml in medium, 3 days, p<0.05
[5] = coating 0.5 μg/mm2, 3 days, p<0.05
[6] = coating 1 μg/mm2, 3 days, p<0.05
[7] = coating 3 μg/mm2, 3 days, p<0.05

## SPPEPS [chondroinductive peptide]
[1]
  collagen type II gene expression, times higher than in the control group: 2.3 times
rBMSC spheroids
  chondroinduction (collagen II gene expression) compared to TGF-β3: outperforms TGF-β3
[2]; 50 ng/ml in medium vs coating 0.5 μg/mm2
  Sox9 gene expression, times higher than coating group: 4.5 times
[2]; 50 ng/ml in medium vs coating 1 μg/mm2
  Sox9 gene expression, times higher than coating group: 4.9 times
[2]; 50 ng/ml in medium vs coating 3 μg/mm2
  Sox9 gene expression, times higher than coating group: 5.2 times
[2]; 50 ng/ml in medium, 3 days, p<0.05
  aggrecan gene expression higher compared to the control group: 34%
[2]; [3]
  aggrecan gene expression higher than the control group (FIG. 4 legend): ~35%
  aggrecan gene expression relative to the control group (FIG. 4 legend): about 1.5 ×
[2]; 100 ng/ml in medium, 3 days
  collagen type II gene expression higher than the control group (FIG. 3 legend): 35%
[2]; [4]
  aggrecan gene expression higher compared to the control group: 35%
  collagen type II gene expression, times higher than in the control group: 1.5 times
[2]; 100 ng/ml in medium, p<0.05
  collagen type II gene expression, times higher compared to SPPEPS 50 ng/mL: 1.5 times
  collagen type II gene expression, times higher compared to SPPEPS 500 ng/mL: 1.6 times
[2]; 500 ng/ml in medium vs coating 0.5 μg/mm2
  Sox9 gene expression, times higher than coating group: 3.2 times
[2]; 500 ng/ml in medium vs coating 1 μg/mm2
  Sox9 gene expression, times higher than coating group: 3.4 times
[2]; 500 ng/ml in medium vs coating 3 μg/mm2
  Sox9 gene expression, times higher than coating group: 3.6 times
[2]; 500 ng/ml in medium, 3 days, p<0.05
  aggrecan gene expression higher compared to the control group: 31%
[2]; [5]
  Sox9 gene expression: control group times higher than coating group: 4.0 times
  collagen type II gene expression lower than in the control group: 61%
[2]; [6]
  Sox9 gene expression: control group times higher than coating group: 4.2 times
  collagen type II gene expression lower than in the control group: 74%
[2]; [7]
  Sox9 gene expression: control group times higher than coating group: 4.5 times
  aggrecan gene expression higher compared to the control group: 31%
  collagen type II gene expression lower than in the control group: 75%
